Assay results from patent US12012411B2, “Viral replication inhibitors” (Katholieke Universiteit Leuven, priority 2011, dated 2024).

Legend:
[1] = test system: uninfected quiescent Vero-B cells; experiment: Cytotoxic assay in uninfected quiescent Vero-B cells (MTS/PMS); settings: 4 days (Table 3)
[2] = test system: DENV-2 NGC; experiment: Antiviral activity against DENV-2 NGC in Vero-B cells (viral RNA load by RT-qPCR); format: cell-based, Dengue virus; settings: Dengue virus, DENV2, Vero B, DENV-2 in Vero-B cells; inhibition of viral RNA replication by 50% (Table 3)
[3] = in vitro; settings: African green monkey, uninfected quiescent Vero-B cells
[4] = test system: DENV-1 Djibouti strain D1/H/IMTSSA/98/606; experiment: Antiviral activity against DENV-1 in Vero-B cells (viral RNA load by RT-qPCR); format: cell-based, Dengue virus; settings: Dengue virus, DENV1, Vero B
[5] = test system: DENV-3 strain H87 prototype; experiment: Antiviral activity against DENV-3 in Vero-B cells (viral RNA load by RT-qPCR); format: cell-based, Dengue virus; settings: Dengue virus, DENV3, Vero B
[6] = test system: DENV-4 strain Dak HD 34 460; experiment: Antiviral activity against DENV-4 in Vero-B cells (viral RNA load by RT-qPCR); format: cell-based, Dengue virus; settings: Dengue virus, DENV4, Vero B

Row | SMILES | CC50 [1] [nM] | EC50 [2] [nM] | CC50 at 4 days [3] [nM] | EC50 [4] [nM] | EC50 [5] [nM] | EC50 [6] [nM]
1 | O=C(c1c[nH]c2ccccc12)C(Nc1cccc(OC(F)(F)F)c1)c1ccccc1 (stereo not shown) [CPD-005] | 5000 | 930 |  |  |  | 
2 | O=C(c1c[nH]c2ccccc12)C(Nc1cccc(F)c1)c1ccccc1 (stereo not shown) [CPD-008] | 12000 | 2420 |  |  |  | 
3 | O=C(c1c[nH]c2ccccc12)C(Nc1cc(F)cc(F)c1)c1ccccc1 (stereo not shown) [CPD-011] | 23000 | 1660 |  |  |  | 
4 | COc1cc(F)cc(NC(C(=O)c2c[nH]c3ccccc23)c2ccccc2)c1 (stereo not shown) [CPD-015] | 22000 | 20 |  |  |  | 
5 | O=C(c1c[nH]c2ccccc12)C(Nc1cccnc1)c1ccccc1 (stereo not shown) [CPD-016] | 54000 | 5010 |  |  |  | 
6 | COc1cccc(NC(C(=O)c2c[nH]c3ccccc23)c2ccc(S(C)(=O)=O)cc2)c1 (stereo not shown) [CPD-021] | > 115000 | 1620 |  |  |  | 
7 | COc1cccc(NC(C(=O)c2c[nH]c3ccccc23)c2ccco2)c1 (stereo not shown) [CPD-023] | 16000 | 300 |  |  |  | 
8 | N#Cc1cccc(NC(C(=O)c2c[nH]c3ccccc23)c2ccccc2)c1 (stereo not shown) [CPD-035] | 14000 | 2110 |  |  |  | 
9 | COc1cccc(NC(C(=O)c2c[nH]c3ccccc23)c2ccc3nccnc3c2)c1 (stereo not shown) [CPD-037] | 19000 | 1200 |  |  |  | 
10 | COc1ccc(OC)c(NC(C(=O)c2c[nH]c3ccccc23)c2ccccc2)c1 (stereo not shown) [CPD-039] | 15000 | 2480 |  |  |  | 
11 | COc1cccc(NC(C(=O)c2c[nH]c3ccccc23)c2ccccc2)c1OC (stereo not shown) [CPD-040] | > 129000 | 4240 |  |  |  | 
12 | CS(=O)(=O)c1cccc(NC(C(=O)c2c[nH]c3ccccc23)c2ccccc2)c1 (stereo not shown) [CPD-044] | 65000 | 6480 |  |  |  | 
13 | O=C(c1c[nH]c2ccccc12)C(Nc1ccc2[nH]c(=O)oc2c1)c1ccccc1 (stereo not shown) [CPD-057] | 15000 | 6050 |  |  |  | 
14 | COc1ccnc(NC(C(=O)c2c[nH]c3ccccc23)c2ccccc2)c1 (stereo not shown) [CPD-066] | 95000 | 6320 |  |  |  | 
15 | COc1nc(NC(C(=O)c2c[nH]c3ccccc23)c2ccccc2)ns1 (stereo not shown) [CPD-070] | 90000 | 3270 |  |  |  | 
16 | O=C(c1c[nH]c2ccccc12)C(NC1CCCC1)c1ccccc1 (stereo not shown) [CPD-183] | 86000 | 15200 |  |  |  | 
17 | COc1cccc(NC(C(=O)c2c[nH]c3c(F)cccc23)c2ccccc2)c1 (stereo not shown) [CPD-205] | 14000 | 60 |  |  |  | 
18 | COc1cccc(NC(C(=O)c2nn(C)c3ccccc23)c2cc3ccccn3n2)c1 (stereo not shown) [CPD-273] |  | 320 | > 122000 | 580 | 7660 | 8410
19 | COc1cc(CO)cc(NC(C(=O)c2nn(C)c3ccccc23)c2ccccc2)c1 (stereo not shown) [CPD-278] |  | 270 | > 125000 | 2840 | 13200 | 5800
20 | COc1cc(NC(C(=O)c2nn(C)c3ccccc23)c2cccnc2)cc(OC)c1 (stereo not shown) [CPD-279] |  | 180 | > 124000 | 620 | 890 | 8660
21 | COc1cccc(NC(C(=O)c2nn(C)c3cc(F)ccc23)c2ccccc2)c1 (stereo not shown) [CPD-281] |  | 210 | > 128000 | 850 | 5570 | 1120
22 | COc1cc(CO)cc(NC(C(=O)c2c[nH]c3ccccc23)c2cccnc2)c1 (stereo not shown) [CPD-282] |  | 260 | > 128000 | 1240 | 3120 | 13100
23 | COc1cc(CO)cc(NC(C(=O)c2c[nH]c3ccccc23)c2ccc(OC)nc2)c1 (stereo not shown) [CPD-283] |  | 170 | 56000 | 2830 | 7140 | 7890
24 | COc1cc(CO)cc(NC(C(=O)c2c[nH]c3cc(F)ccc23)c2ccccc2)c1 (stereo not shown) [CPD-285] |  | 40 | 50000 | 840 | 2200 | 2310
25 | COc1cc(CO)cc(NC(C(=O)c2c[nH]c3ccccc23)c2cnc(OC)cn2)c1 (stereo not shown) [CPD-288] |  | 120 | 77000 | 1900 | 2700 | 6330

Row | SMILES | CC50 [1] [nM] | EC50 [2] [nM] | CC50 at 4 days [3] [nM] | EC50 [4] [nM] | EC50 [5] [nM] | EC50 [6] [nM]
26 | COc1cc(CO)cc(NC(C(=O)c2c[nH]c3ccccc23)c2cc3ccccn3n2)c1 (stereo not shown) [CPD-289] |  | 60 | 68000 | 800 | 910 | 10200
27 | COc1cc(NC(C(=O)c2c[nH]c3ccccc23)c2ccc(OC)nc2)cc(OCCO)c1 (stereo not shown) [CPD-291] |  | 60 | 53000 | 800 | 800 | 8670
28 | COc1cc(NC(C(=O)c2c[nH]c3ccccc23)c2cnc(OC)cn2)cc(OCCO)c1 (stereo not shown) [CPD-292] |  | 60 | 68000 | 830 | 1110 | 7080
29 | COc1cccc(NC(C(=O)c2c[nH]c3ccc(F)cc23)c2cnc(OC)cn2)c1 (stereo not shown) [CPD-295] |  | 30 | 18000 | 340 | 1380 | 6290
30 | COc1cc(CO)cc(NC(C(=O)c2c[nH]c3ccc(F)cc23)c2ccccc2)c1 (stereo not shown) [CPD-296] |  | 50 | 31000 | 990 | 1830 | 3310
31 | COc1cc(NC(C(=O)c2nn(C)c3ccccc23)c2ccccc2)cc(OCCO)c1 (stereo not shown) [CPD-298] |  | 420 | > 116000 | 2020 | 5790 | 4520
32 | COc1cccc(NC(C(=O)c2c[nH]c3ccccc23)c2ccccn2)c1 (stereo not shown) [CPD-301] |  | 80 | 89000 | 1120 | 500 | 4250
33 | COc1cc(NC(C(=O)c2cn(C)c3ccccc23)c2ccccc2)cc(OCCO)c1 (stereo not shown) [CPD-305] |  | 90 | > 116000 | 440 | 1020 | 2560
34 | COc1cccc(NC(C(=O)c2c[nH]c3ccccc23)c2cncc(C)c2)c1 (stereo not shown) [CPD-309] |  | 540 | 74000 | 620 | 700 | 2800
35 | COc1ccc(C(Nc2cccc(OC)c2)C(=O)c2c[nH]c3ccccc23)nc1 (stereo not shown) [CPD-310] |  | 60 | 25000 | 1110 | 650 | 9370
36 | COc1cc(CO)cc(NC(C(=O)c2c[nH]c3ccccc23)c2ccc(F)cc2)c1 (stereo not shown) [CPD-313] |  | 40 | 58000 | 720 | 1110 | 5840
37 | COc1cccc(NC(C(=O)c2c[nH]c3ccccc23)c2ccc(C#N)nc2)c1 (stereo not shown) [CPD-314] |  | 210 | 50000 | 1700 | 2800 | 8760
38 | COc1cccc(NC(C(=O)c2c[nH]c3ccccc23)c2ccc(C(F)(F)F)nc2)c1 (stereo not shown) [CPD-315] |  | 50 | 13000 | 380 | 1010 | 1970
39 | COc1cc(NC(C(=O)c2c[nH]c3cc(F)ccc23)c2ccccc2)cc(OCCO)c1 (stereo not shown) [CPD-316] |  | 20 | 29000 | 390 | 320 | 4420
40 | COc1cccc(NC(C(=O)c2c[nH]c3ccccc23)c2cccnn2)c1 (stereo not shown) [CPD-317] |  | 580 | 88000 | 4130 | 12800 | 10600
41 | COc1cc(CO)cc(NC(C(=O)c2c[nH]c3c(C)cccc23)c2ccccc2)c1 (stereo not shown) [CPD-318] |  | 60 | 54000 | 220 | 2320 | 10800
42 | COc1cc(NC(C(=O)c2c[nH]c3ccccc23)c2ccccc2)cc(OC)n1 (stereo not shown) [CPD-319] |  | 120 | 20000 | 2840 | 1700 | 2270
43 | COc1cccc(NC(C(=O)c2c[nH]c3ccccc23)c2cncc(F)c2)c1 (stereo not shown) [CPD-321] |  | 110 | 33000 | 400 | 320 | 2740
44 | COc1cccc(NC(C(=O)c2c[nH]c3c(C)cccc23)c2cc3ccccn3n2)c1 (stereo not shown) [CPD-329] |  | 10 | 41000 | 270 | 320 | 2920
45 | COc1cc(NC(C(=O)c2c[nH]c3c(C)cccc23)c2ccccc2)cc(OCCO)c1 (stereo not shown) [CPD-331] |  | 20 | 14000 | 390 | 390 | 3280
46 | COc1cccc(NC(C(=O)c2c[nH]c3c(C)cccc23)c2ccc(OC)nc2)c1 (stereo not shown) [CPD-332] |  | 40 | 20000 | 720 | 1350 | 2840
47 | COc1cc(CO)cc(NC(C(=O)c2c[nH]c3ccccc23)c2ccc(F)nc2)c1 (stereo not shown) [CPD-333] |  | 40 | 90000 | 390 | 490 | 5920
48 | COc1cc(NC(C(=O)c2c[nH]c3ccccc23)c2ccc(OC)nc2)cc(OC)c1 (stereo not shown) [CPD-335] |  | 20 | 18000 | 320 | 420 | 2380
49 | COc1cc(NC(C(=O)c2c[nH]c3c(C)cccc23)c2ccccc2)cc(OC)c1 (stereo not shown) [CPD-337] |  | 5 | 15000 | 90 | 230 | 950
50 | COc1cc(NC(C(=O)c2c[nH]c3c(CCO)cccc23)c2ccccc2)cc(OC)c1 (stereo not shown) [CPD-339] |  | 90 | 19000 | 810 | 820 | 2930
